The source of these data is ChEMBL document CHEMBL2429770, “Development of Mycobacterium tuberculosis whole cell screening hits as potential antituberculosis agents” (J Med Chem, 2013).

Each structure is given as a SMILES string. pKi: −log10 of the molar value.

Assay [1] is described as follows: Inhibition of Mycobacterium tuberculosis PtpB.
Assay [2] concerns Mycobacterium tuberculosis. Briefly: Antimycobacterial activity against Mycobacterium tuberculosis H37Rv. Format: functional.

For orientation: pKi means the Ki on a negative log10 scale, so that one unit is a factor of ten. Turning to `O=C(O)c1cc(-c2ccc(-c3ccc(F)c(C(F)(F)F)c3)cc2C2CCCCC2)on1`, the pKi in assay [1] was 6.66.
For orientation: MIC means the smallest concentration in the dilution series that meets the test's criterion for growth inhibition. A higher MIC goes with weaker potency. Regarding `Cc1sc(N)nc1C(=O)O`, it took 0.06 µg/mL to inhibit growth in assay [2] (MIC).
On the same count and under the same terms, as for `COC(=O)c1nc(N)sc1Cc1ccccc1`, the figure is 0.06 µg/mL.
`Cc1ccc2nc(C)c(C(=O)NCc3cccs3)n2c1` came in with a minimal inhibitory concentration (MIC) in assay [2] of 0.19 µM. In other words, the sub-micromolar range.
`COc1ccc2nc(C)cc(OCC(=O)Nc3ccccc3OC)c2c1` registered an MIC in assay [2] of 0.7 µM.
On the same count and under the same terms, as for `c1cc2c(s1)CCOC21CCN(Cc2ccc3c(c2)OCCO3)CC1`, the figure is 0.38 µM; as for `O=C(NC12CC3CC(CC(C3)C1)C2)c1cc2cc(Cl)ccc2[nH]1`, 0.47 µM.
Same read-out and setting: as for `CCc1ccc([C@@H]2C[C@H](C(F)(F)F)n3ncc(C(=O)NCc4ccc(OC)cc4)c3N2)cc1`, the figure is 0.25 µM; as for `Cc1cccc(-c2nc(Nc3ccncn3)c3c(C)csc3n2)n1`, 0.76 µM.
For `O=P(O)(O)C(F)(F)c1ccc(-c2ccc(F)c(C(F)(F)F)c2)cc1C1CCCCC1`, the pKi in assay [1] is 6.16.
Turning to `CCCCCCCCCCN1CCCC(O/N=C2\[C@H](C)C[C@@](C)(OC)[C@H](O[C@@H]3O[C@H](C)C[C@H](N(C)C)[C@H]3O)[C@@H](C)C(=O)[C@@H](C)C(=O)O[C@H](CC)[C@@](C)(O)[C@H](O)[C@H]2C)C1` (some centres not stated), the minimum inhibitory concentration (MIC) in assay [2] came to 0.125 µM.
On the same count and under the same terms, as for `COc1ccc(CCNc2cc(-c3ccccc3)nc3ncnn23)cc1`, the figure is 0.94 µM.
